From patent US11517556B2, “Composition for BKCa channel activation” (GWANGJU INSTITUTE OF SCIENCE AND TECHNOLOGY, priority 2016, dated 2022)

Tests used:
[1] = target: T1, mutant BKCa channel (G803D/N806K) (Rattus norvegicus, UniProt Q62976, G803D/N806K); assay: Cell-based TI+ fluorescence (FluxOR) assay in AD-293 cells
T1 construct: expressed in transfected cells
Description: AD-293 cells (Lee et al., 2013), as a modified HEK293 cell for expressing a mutant BKCa channel, were placed in DMEM (Dulbecco's Modified Eagle's medium) supplemented with 10% fetal bovine serum and 1 mg/ml geneticin (Gibco) as an antibiotic. The cells were cultured under a humidified condition of 5% CO2 and 37° C.
AD-293 cells stably expressing the mutant BKCa channel (G803D/N806K) were used for cell-based assays (Lee et al., 2013). Approximately 20,000 cells/well were inoculated on a black-wall assay plate (Corning Incorporated) coated with poly-D-lysine (Sigma-Aldrich), which is 96-well clear-bottom. A FluxOR™ […] (Invitrogen) was used for initial screening of compound libraries, and for further assay of candidate compounds. Experiments were performed according to the manufacturer's following guidelines: growth medium was replaced with 80 μl/well of loading buffer containing FluxOR™ fluorescent dye, and incubation was carried out for 1 hour under a light-free condition. After the incubation, the loading buffer was replaced with 100 μl/well of assay buffer containing various concentrations of compounds of interest, followed by incubation for 20 minutes to 30 minutes. DMSO (1%) was vehicle and the vehicle was used for all test compounds. CTBIC (Cormemis et al. 2005; Lee et al. 2012), previously identified as an activator of the BKCa channel, was used as a positive control. For fluorescence measurements, synergy TM H1 hybrid multi-mode microplate reader (BioTek Instrument Inc., Winnoski, Vt.) and Cen5 software was used in initial screening. For additional assays, Flexstation 3 multi-mode microplate reader (Molecular Devices) and SoftMax®Pro software were used, respectively. A fluorescence signal was obtained at an excitation wavelength of 485 nm and an emission wavelength of 528 nm. Membrane polarization was induced by a stimulus buffer containing thallium ion. The fluorescence signal was measured under two conditions: every 10 seconds for 2 minutes before treating the stimulation buffer and then every 10 seconds for 3 minutes after addition of stimulation buffer for synergy H1, and every 2 seconds for 20 seconds before stimulus buffer treatment, and then every 2 seconds for 160 seconds after adding the stimulus buffer for FlexStation 3.
A fluorescence signal change was measured based on a relative fluorescence unit (RFU) or F/F0 where F0 is ta minimum fluorescence value of each fluorescence trace. To quantitatively compare activation effects of kurarinone and its derivatives, an initial fluorescence increase was calculated using first three points after treatment with the stimulation buffer, and a linear slope was predicted using OriginPro 9.1 (OriginLab Corp., Northampton, Mass.).

[2] = test system: spontaneous hypertensive rats (SHR); assay: Voiding behavior of spontaneous hypertensive rats (SHR); assay type: in vivo, rat
Description: (§1) The voiding frequency was monitored for 3 hours. FIG. 9B represents a total number of voidings. Each symbol or bar represents average±SEM of 5 (WKY) or 7 (SHR) animals (*** P<0.001).
(§2) The cumulative voiding frequency is shown in FIG. 9A for WKY and SHR orally administered with kurarinone. The administration of kurarinone may allow distinct differences in voiding frequency to be evident between WKY and SHR. […] In the WKY control rat, the decrease of the voiding frequency was not observed.

[3] = test system: Wistar Kyoto rat (WKY); assay: Voiding behavior of Wistar Kyoto rat (WKY); assay type: in vivo; settings: up to 5 mg/kg
Description: as §1, §2

T1 sequence (Q62976 whole entry G803D/N806K): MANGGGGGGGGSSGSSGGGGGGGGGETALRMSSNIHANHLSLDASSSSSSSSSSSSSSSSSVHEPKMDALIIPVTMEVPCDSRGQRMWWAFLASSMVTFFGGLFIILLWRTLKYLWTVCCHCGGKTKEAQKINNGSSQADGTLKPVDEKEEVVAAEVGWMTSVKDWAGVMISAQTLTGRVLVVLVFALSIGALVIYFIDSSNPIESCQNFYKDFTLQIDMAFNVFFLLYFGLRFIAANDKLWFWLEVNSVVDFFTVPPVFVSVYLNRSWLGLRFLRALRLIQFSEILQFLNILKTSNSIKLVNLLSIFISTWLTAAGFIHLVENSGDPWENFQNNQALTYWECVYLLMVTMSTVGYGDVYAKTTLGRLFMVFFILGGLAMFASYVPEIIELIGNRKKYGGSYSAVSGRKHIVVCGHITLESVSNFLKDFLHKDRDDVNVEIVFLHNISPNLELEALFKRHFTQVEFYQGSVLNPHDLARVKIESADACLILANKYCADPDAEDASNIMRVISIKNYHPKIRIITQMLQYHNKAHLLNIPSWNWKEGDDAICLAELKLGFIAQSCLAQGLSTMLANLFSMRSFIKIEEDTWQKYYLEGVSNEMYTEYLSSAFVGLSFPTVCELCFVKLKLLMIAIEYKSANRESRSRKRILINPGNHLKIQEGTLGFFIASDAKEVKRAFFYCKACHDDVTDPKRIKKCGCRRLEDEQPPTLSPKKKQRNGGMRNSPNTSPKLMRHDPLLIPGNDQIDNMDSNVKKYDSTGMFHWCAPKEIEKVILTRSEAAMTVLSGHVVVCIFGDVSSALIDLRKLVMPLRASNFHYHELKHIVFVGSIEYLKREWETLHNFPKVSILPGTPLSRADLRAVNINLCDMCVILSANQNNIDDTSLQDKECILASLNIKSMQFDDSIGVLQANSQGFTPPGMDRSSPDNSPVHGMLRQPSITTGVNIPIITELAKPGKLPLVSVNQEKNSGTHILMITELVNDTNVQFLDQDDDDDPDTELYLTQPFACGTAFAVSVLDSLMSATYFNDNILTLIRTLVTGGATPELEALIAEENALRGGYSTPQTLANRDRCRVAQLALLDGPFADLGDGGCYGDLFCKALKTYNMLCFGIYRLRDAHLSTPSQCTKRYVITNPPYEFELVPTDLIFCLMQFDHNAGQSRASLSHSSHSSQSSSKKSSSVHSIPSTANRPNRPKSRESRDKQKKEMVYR

C=C(C)[C@H](CC=C(C)C)Cc1c(O)cc(OC)c2c1O[C@H](c1ccc(O)cc1O)CC2=O [kurarinone]
TI+ fluorescence increase in library screening ([1]; 5 μM final concentration, compared to vehicle (1% DMSO), among 794 natural compounds): strongest fluorescence increase | TI+-fluorescence enhancement (initial RFU increase) ([1]; 10 μM, n=4): strong fluorescence increase | concentration dependence of TI+ fluorescence ([1]; 3, 5, 10, 30 μM): increased in a dose-dependent manner | total voiding frequency for 3 hours ([2]; 5 mg/kg, vehicle 10.9±1.4): 6.9±0.8 | effect on voiding frequency ([2]; 0.5 and 5 mg/kg): reduced the voiding frequency for SHR in a dose-dependent manner | effect on voiding frequency [3]: not affected
